Laboratory results taken from ChEMBL document CHEMBL1136896, “Synthesis and biological evaluation of arylhydrazinocyanoacrylates and N-aryl pyrazolecarboxylates” (2009).

Tested on: Mycosphaerella arachidis
Experiment: Fungicidal activity against Cercospora arachidicola assessed as inhibition of mycelium growth at 50 mg/L after 72 hrs
Format: functional
Settings: not given

SMILES | inhibition at 50 µg/mL
CCOCCOC(=O)/C(C#N)=C(\NNc1cc(Cl)c(Cl)cc1Cl)C(C)C | 18.2%
CCOCCOC(=O)/C(C#N)=C(\NNc1cccc(Cl)c1Cl)C(C)C | 36.4%

Tested on: HL-60
Experiment: Antitumor activity against human HL60 cells at 1 uM/L after 72 hrs by MTT assay
Format: functional
Settings: HL-60, 72 h

SMILES | inhibition at 1 µM
CCOCCOC(=O)/C(C#N)=C(\NNc1cc(Cl)c(Cl)cc1Cl)C(C)C | 7.1%
CCOCCOC(=O)/C(C#N)=C(\NNc1cccc(Cl)c1Cl)C(C)C | 24.3%

Tested on: Bel-7402
Experiment: Antitumor activity against human Bel7402 cells at 1 uM/L after 72 hrs by MTT assay
Format: functional
Settings: Bel-7402, 72 h

SMILES | inhibition at 1 µM
CCOCCOC(=O)/C(C#N)=C(\NNc1cc(Cl)c(Cl)cc1Cl)C(C)C | 0%
CCOCCOC(=O)/C(C#N)=C(\NNc1cccc(Cl)c1Cl)C(C)C | 14.7%

Tested on: Cucumis sativus
Experiment: Growth regulatory activity in cucumber assessed as root growth at 10 mg/L incubated in dark for 5 days
Format: functional
Settings: not given

SMILES | Activity
CCOCCOC(=O)/C(C#N)=C(\NNc1cc(Cl)c(Cl)cc1Cl)C(C)C | -1.5%
CCOCCOC(=O)/C(C#N)=C(\NNc1cccc(Cl)c1Cl)C(C)C | 72.9%

Tested on: Brassica napus
Experiment: Herbicidal activity against Brassica napus at 1.5 kg/hectare administered postemergence of first true leaf measured after 10 days
Format: functional
Settings: post-emergence, 240 h

SMILES | inhibition at 1500 g/ha
CCOCCOC(=O)/C(C#N)=C(\NNc1cc(Cl)c(Cl)cc1Cl)C(C)C | 5%
CCOCCOC(=O)/C(C#N)=C(\NNc1cccc(Cl)c1Cl)C(C)C | 0.2%

Tested on: HL-60
Experiment: Antitumor activity against human HL60 cells at 10 uM/L after 72 hrs by MTT assay
Format: functional
Settings: HL-60, 72 h

SMILES | inhibition at 10 µM
CCOCCOC(=O)/C(C#N)=C(\NNc1cc(Cl)c(Cl)cc1Cl)C(C)C | 23.4%
CCOCCOC(=O)/C(C#N)=C(\NNc1cccc(Cl)c1Cl)C(C)C | 28.7%

Tested on: Digitaria sanguinalis
Experiment: Herbicidal activity against Digitaria sanguinalis at 1.5 kg/hectare administered postemergence of first true leaf measured after 10 days
Format: functional
Settings: post-emergence, 240 h

SMILES | inhibition at 1500 g/ha
CCOCCOC(=O)/C(C#N)=C(\NNc1cc(Cl)c(Cl)cc1Cl)C(C)C | 0%
CCOCCOC(=O)/C(C#N)=C(\NNc1cccc(Cl)c1Cl)C(C)C | 16.1%

Tested on: Fusarium graminearum
Experiment: Fungicidal activity against Gibberella zeae assessed as inhibition of mycelium growth at 50 mg/L after 72 hrs
Format: functional
Settings: not given

SMILES | inhibition at 50 µg/mL
CCOCCOC(=O)/C(C#N)=C(\NNc1cc(Cl)c(Cl)cc1Cl)C(C)C | 14.4%
CCOCCOC(=O)/C(C#N)=C(\NNc1cccc(Cl)c1Cl)C(C)C | 14.4%

Tested on: Botryosphaeria berengeriana
Experiment: Fungicidal activity against Physalospora pyricola assessed as inhibition of mycelium growth at 50 mg/L after 72 hrs
Format: functional
Settings: not given

SMILES | inhibition at 50 µg/mL
CCOCCOC(=O)/C(C#N)=C(\NNc1cc(Cl)c(Cl)cc1Cl)C(C)C | 26.7%
CCOCCOC(=O)/C(C#N)=C(\NNc1cccc(Cl)c1Cl)C(C)C | 66.7%

Tested on: Alternaria solani
Experiment: Fungicidal activity against Alternaria solani assessed as inhibition of mycelium growth at 50 mg/L after 72 hrs
Format: functional
Settings: not given

SMILES | inhibition at 50 µg/mL
CCOCCOC(=O)/C(C#N)=C(\NNc1cc(Cl)c(Cl)cc1Cl)C(C)C | 10%
CCOCCOC(=O)/C(C#N)=C(\NNc1cccc(Cl)c1Cl)C(C)C | 35%

Tested on: Amaranthus retroflexus
Experiment: Herbicidal activity against Amaranthus retroflexus at 1.5 kg/hectare administered preemergence of first true leaf measured after 10 days
Format: functional
Settings: pre-emergence, 240 h

SMILES | inhibition at 1500 g/ha
CCOCCOC(=O)/C(C#N)=C(\NNc1cc(Cl)c(Cl)cc1Cl)C(C)C | 5.9%
CCOCCOC(=O)/C(C#N)=C(\NNc1cccc(Cl)c1Cl)C(C)C | 0%

Tested on: Bel-7402
Experiment: Antitumor activity against human Bel7402 cells at 1000 uM/L after 72 hrs by MTT assay
Format: functional
Settings: Bel-7402, 72 h

SMILES | inhibition at 1000 µM
CCOCCOC(=O)/C(C#N)=C(\NNc1cc(Cl)c(Cl)cc1Cl)C(C)C | 96.9%
CCOCCOC(=O)/C(C#N)=C(\NNc1cccc(Cl)c1Cl)C(C)C | 49.1%

Tested on: Medicago sativa
Experiment: Herbicidal activity against Medicago sativa at 1.5 kg/hectare administered postemergence of first true leaf measured after 10 days
Format: functional
Settings: post-emergence, 240 h

SMILES | inhibition at 1500 g/ha
CCOCCOC(=O)/C(C#N)=C(\NNc1cc(Cl)c(Cl)cc1Cl)C(C)C | 3.7%
CCOCCOC(=O)/C(C#N)=C(\NNc1cccc(Cl)c1Cl)C(C)C | 5.1%

Tested on: HL-60
Experiment: Antitumor activity against human HL60 cells at 1000 uM/L after 72 hrs by MTT assay
Format: functional
Settings: HL-60, 72 h

SMILES | inhibition at 1000 µM
CCOCCOC(=O)/C(C#N)=C(\NNc1cc(Cl)c(Cl)cc1Cl)C(C)C | 81.1%
CCOCCOC(=O)/C(C#N)=C(\NNc1cccc(Cl)c1Cl)C(C)C | 48.8%

Tested on: Brassica napus
Experiment: Herbicidal activity against Brassica napus L. at 1.5 kg/hectare administered preemergence of first true leaf measured after 10 days
Format: functional
Settings: pre-emergence, 240 h

SMILES | inhibition at 1500 g/ha
CCOCCOC(=O)/C(C#N)=C(\NNc1cc(Cl)c(Cl)cc1Cl)C(C)C | 0%
CCOCCOC(=O)/C(C#N)=C(\NNc1cccc(Cl)c1Cl)C(C)C | 0%

Tested on: Cladosporium cucumerinum
Experiment: Fungicidal activity against Cladosporium cucumerinum assessed as inhibition of mycelium growth at 50 mg/L after 72 hrs
Format: functional
Settings: not given

SMILES | inhibition at 50 µg/mL
CCOCCOC(=O)/C(C#N)=C(\NNc1cc(Cl)c(Cl)cc1Cl)C(C)C | 16.7%
CCOCCOC(=O)/C(C#N)=C(\NNc1cccc(Cl)c1Cl)C(C)C | 25%

Tested on: HL-60
Experiment: Antitumor activity against human HL60 cells at 100 uM/L after 72 hrs by MTT assay
Format: functional
Settings: HL-60, 72 h

SMILES | inhibition at 100 µM
CCOCCOC(=O)/C(C#N)=C(\NNc1cc(Cl)c(Cl)cc1Cl)C(C)C | 1.5%
CCOCCOC(=O)/C(C#N)=C(\NNc1cccc(Cl)c1Cl)C(C)C | 36.2%

Tested on: Amaranthus retroflexus
Experiment: Herbicidal activity against Amaranthus retroflexus at 1.5 kg/hectare administered postemergence of first true leaf measured after 10 days
Format: functional
Settings: post-emergence, 240 h

SMILES | inhibition at 1500 g/ha
CCOCCOC(=O)/C(C#N)=C(\NNc1cc(Cl)c(Cl)cc1Cl)C(C)C | 20.3%
CCOCCOC(=O)/C(C#N)=C(\NNc1cccc(Cl)c1Cl)C(C)C | 22.7%

Tested on: Digitaria sanguinalis
Experiment: Herbicidal activity against Digitaria sanguinalis (L.) Scop. at 1.5 kg/hectare administered preemergence of first true leaf measured after 10 days
Format: functional
Settings: pre-emergence, 240 h

SMILES | inhibition at 1500 g/ha
CCOCCOC(=O)/C(C#N)=C(\NNc1cc(Cl)c(Cl)cc1Cl)C(C)C | 0%
CCOCCOC(=O)/C(C#N)=C(\NNc1cccc(Cl)c1Cl)C(C)C | 0%

Tested on: Medicago sativa
Experiment: Herbicidal activity against Medicago sativa at 1.5 kg/hectare administered preemergence of first true leaf measured after 10 days
Format: functional
Settings: pre-emergence, 240 h

SMILES | inhibition at 1500 g/ha
CCOCCOC(=O)/C(C#N)=C(\NNc1cc(Cl)c(Cl)cc1Cl)C(C)C | 0%
CCOCCOC(=O)/C(C#N)=C(\NNc1cccc(Cl)c1Cl)C(C)C | 0%

Tested on: Bel-7402
Experiment: Antitumor activity against human Bel7402 cells at 100 uM/L after 72 hrs by MTT assay
Format: functional
Settings: Bel-7402, 72 h

SMILES | inhibition at 100 µM
CCOCCOC(=O)/C(C#N)=C(\NNc1cc(Cl)c(Cl)cc1Cl)C(C)C | 0%
CCOCCOC(=O)/C(C#N)=C(\NNc1cccc(Cl)c1Cl)C(C)C | 19%

Tested on: Bel-7402
Experiment: Antitumor activity against human Bel7402 cells at 10 uM/L after 72 hrs by MTT assay
Format: functional
Settings: Bel-7402, 72 h

SMILES | inhibition at 10 µM
CCOCCOC(=O)/C(C#N)=C(\NNc1cc(Cl)c(Cl)cc1Cl)C(C)C | 0%
CCOCCOC(=O)/C(C#N)=C(\NNc1cccc(Cl)c1Cl)C(C)C | 15.1%
